Values quoted from earlier work, collected in patent US10314848B2, “Use of testosterone and a 5-HT1A agonist in the treatment of sexual dysfunction” (EB IP LYBRIDOS B.V., priority 2006, dated 2019).

SMILES | Time to maximum plasma concentration (in vivo) [h] | half-life (single doses) [h] | Time to peak plasma concentration after administration (in vivo)
O=C(NCCN1CCN(c2cccc3c2OC[C@H](CO)O3)CC1)c1ccc(F)cc1 [flesinoxan] | 1 to 2 | 5.5 | –
CCCc1nc(C)c2c(=O)nc(-c3cc(S(=O)(=O)N4CCN(CC)CC4)ccc3OCC)[nH]n12.Cl [vardenafil, piperazine, 1-[[3-(1,4-dihydro-5-methyl-4-oxo-7-propylimidazo[5,1-f][1,2,4]triazin-2-yl)-4-ethoxyphenyl]sulfonyl]-4-ethyl-, monohydrochloride] | – | – | about 1 hour
